Laboratory results: patent publication US7875634B2, “Cyano anthranilamide insecticides” (E. I. du Pont de Nemours and Company, priority 2003, dated 2011)

Columns and labels:
Format in all cases: in vivo
[1] = tested on: potato leafhopper (Empoasca fabae); experiment: Test H: foliar movement of compound through the plant, potato leafhopper mortality (bean); settings: applied at 1000 ppm, 20 microliters by pipet to two leaves of bean plant; infested after 2 days, held 8 additional days; insects fed on untreated plant tissues
Description: (§1) For evaluating movement of compounds in plants and control of green peach aphid (Myzus persicae) and potato leafhopper (Empoasca fabae) after foliar movement of compound through the plant, the test unit consisted of a small open container with a 12-15-day-old radish plant (for green peach aphid test) or 5-6 day old Longio bean plant (for potato leafhopper test).
(§2) Test compounds were formulated using a solution containing 10% acetone, 90% water and 600 ppm X-77® Spreader Lo-Foam Formula non-ionic surfactant containing alkylarylpolyoxyethylene, free fatty acids, glycols and isopropanol (Loveland Industries, Inc.). The formulated compounds were applied in 20 microliters by pipet to two larger photosynthetically active leaves. All experimental compounds in this screen were applied at 1000 ppm, and the tests were replicated three times. After applying the formulated test compounds, the soil of each test unit was covered with a layer of sand and each test unit was allowed to dry for 1 hr and then a black, screened cap was placed on top. The test units were held in a growth chamber at about 20° C. and 50-70% relative humidity.
(§3) After 2 days, the treated leaves were covered on all sides with a fine plastic mesh, but with the leaf petiole intact and still attached to the plant to allow normal vascular movement and photosynthesis. The plants were then infested with 20-30 aphids (radish) or 20 leafhoppers (bean) and held in the growth chamber for 8 additional days. Each test unit was then visually assessed for mortality of the insects, which had contacted and fed on the untreated plant tissues.

[2] = tested on: green peach aphid (Myzus persicae); experiment: Test H: foliar movement of compound through the plant, green peach aphid mortality (radish); settings: applied at 1000 ppm, 20 microliters by pipet to two leaves of radish plant; infested after 2 days, held 8 additional days; insects fed on untreated plant tissues
Description: as §1, §2, §3

[3] = tested on: green peach aphid (Myzus persicae); experiment: Test 1 (I): xylem movement from soil application, green peach aphid mortality (radish); settings: for % GPA M (green peach aphid mortality): 1000 ppm, 1 mL to soil at base of radish plant, infested after 2 days, held 5 additional days
Description: (§4) For evaluating movement of compounds in plants and control of green peach aphid (Myzus persicae) and potato leafhopper (Empoasca fabae) after xylem movement of compound from soil application up through roots into foliage, the test unit consisted of a small open container with a 12-15-day-old radish plant (for green peach aphid test) or 5-6-day-old Longio bean plant (for potato leafhopper test).
as §2, with “in 1 mL of solution” for “in 20 microliters”, “to the soil at the base of the plant.” for “to two larger photosynthetically active leaves.”, “compounds, each test unit was allowed to dry for 1 h. The” for “compounds, the”, “sand” for “sand and each test unit was allowed to dry for 1 hr”
(§5) After 2 days, the plants were then infested with 20-30 aphids (radish) or 20 leafhoppers (bean) and held in the growth chamber for 5 additional days. Each test unit was then visually assessed for mortality of the insects, which had contacted and fed on the untreated plant foliage.

[4] = tested on: cotton melon aphid (Aphis gossypii); experiment: Test E: control of cotton melon aphid through contact and/or systemic means, spray on cotton; settings: 144 h
Description: For evaluating control of cotton melon aphid (Aphis gossypii) through contact and/or systemic means, the test unit consisted of a small open container with a 6-7-day-old cotton plant inside. This was pre-infested with 30-40 insects on a piece of leaf according to the cut-leaf method described for Test C, and the soil of the test unit was covered with a layer of sand.
Test compounds were formulated and sprayed at 250 ppm as described for Test D. The applications were replicated three times. After spraying, the test units were maintained in a growth chamber and then visually rated as described for Test D.

[5] = tested on: green peach aphid (Myzus persicae); experiment: Test C: control of green peach aphid through contact and/or systemic means, spray on radish; settings: 144 h
Description: For evaluating control of green peach aphid (Myzus persicae) through contact and/or systemic means, the test unit consisted of a small open container with a 12-15-day-old radish plant inside. This was pre-infested by placing on a leaf of the test plant 30-40 aphids on a piece of leaf excised from a culture plant (cut-leaf method). The larvae moved onto the test plant as the leaf piece desiccated. After pre-infestation, the soil of the test unit was covered with a layer of sand.
Test compounds were formulated using a solution containing 10% acetone, 90% water and 300 ppm X-77® Spreader Lo-Foam Formula non-ionic surfactant containing alkylarylpolyoxyethylene, free fatty acids, glycols and isopropanol (Loveland Industries, Inc.). The formulated compounds were applied in 1 mL of liquid through a SUJ2 atomizer nozzle with ⅛ JJ custom body (Spraying Systems Co.) positioned 1.27 cm (0.5 inches) above the top of each test unit. All experimental compounds in this screen were sprayed at 250 ppm, replicated three times. After spraying of the formulated test compound, each test unit was allowed to dry for 1 hour and then a black, screened cap was placed on top. The test units were held for 6 days in a growth chamber at 19-21° C. and 50-70% relative humidity. Each test unit was then visually assessed for insect mortality.

[6] = tested on: potato leafhopper (Empoasca fabae Harris); experiment: Test D: control of potato leafhopper through contact and/or systemic means, spray on bean plant; settings: 144 h
Procedure: For evaluating control of potato leafhopper (Empoasca fabae Harris) through contact and/or systemic means, the test unit consisted of a small open container with a 5-6 day old Longio bean plant (primary leaves emerged) inside. White sand was added to the top of the soil and one of the primary leaves was excised prior to application. Test compounds were formulated and sprayed at 250 ppm and replicated three times as described for Test C. After spraying, the test units were allowed to dry for 1 hour before they were post-infested with 5 potato leafhoppers (18 to 21 day old adults). A black, screened cap was placed on the top of the cylinder. The test units were held for 6 days in a growth chamber at 19-21° C. and 50-70% relative humidity. Each test unit was then visually assessed for insect mortality.

[7] = tested on: corn planthopper (Peregrinus maidis); experiment: Test F: control of corn planthopper through contact and/or systemic means, spray on corn; settings: 144 h
Procedure: For evaluating control of corn planthopper (Peregrinus maidis) through contact and/or systemic means, the test unit consisted of a small open container with a 3-4 day old corn (maize) plant (spike) inside. White sand was added to the top of the soil prior to application. Test compounds were formulated and sprayed at 250 ppm and replicated three times as described for Test C. After spraying, the test units were allowed to dry for 1 hour before they were post-infested with 10-20 corn planthoppers (18- to 20-day old nymphs) by sprinkling them onto the sand with a salt shaker. A black, screened cap was placed on the top of the cylinder. The test units were held for 6 days in a growth chamber at 19-21° C. and 50-70% relative humidity. Each test unit was then visually assessed for insect mortality.

[8] = tested on: potato leafhopper (Empoasca fabae); experiment: Test 1 (I): xylem movement from soil application, potato leafhopper mortality (bean); settings: for % PLH M (potato leafhopper mortality): 1000 ppm, 1 mL to soil at base of bean plant, infested after 2 days, held 5 additional days
Description: as §4
as §2, with “in 1 mL of solution” for “in 20 microliters”, “to the soil at the base of the plant.” for “to two larger photosynthetically active leaves.”, “compounds, each test unit was allowed to dry for 1 h. The” for “compounds, the”, “sand” for “sand and each test unit was allowed to dry for 1 hr”
as §5

Row | Structure (SMILES) | % PLH M (potato leafhopper mortality) [1] [%] | % GPA M (green peach aphid mortality) [2] [%] | % GPA M (green peach aphid mortality) [3] [%] | % PLH M (potato leafhopper mortality) [8] [%] | also measured
1 | CNC(=O)c1cc(C#N)cc(C)c1NC(=O)c1cc(Cl)nn1-c1ncccc1Cl [Compound 3] | 96 | 81 | – | – | –
2 | Cc1cc(C#N)cc(C(=O)NCC#N)c1NC(=O)c1cc(Br)nn1-c1ncccc1Cl [Compound 27] | 13 | 57 | – | – | –
3 | Cc1cc(C#N)cc(C(N)=O)c1NC(=O)c1cc(C(F)(F)F)nn1-c1ncccc1Cl [Compound 1] | 58 | 87 | – | – | mortality at 1000 ppm ([3]; Myzus persicae, soil, read-out: % GPA M (green peach aphid mortality)): 64%; mortality at 250 ppm [4]: ≥ 80%; mortality at 250 ppm [5]: ≥ 80%; mortality at 250 ppm [6]: ≥ 80%; mortality at 250 ppm [7]: ≥ 80%; mortality at 1000 ppm ([8]; Empoasca fabae, soil, read-out: % PLH M (potato leafhopper mortality)): 100%
4 | Cc1cc(C#N)cc(C(N)=O)c1NC(=O)c1cc(Br)nn1-c1ncccc1Cl [Compound 6] | 77 | 100 | 59 | 100 | –
5 | Cc1cc(C#N)cc(C(N)=O)c1NC(=O)c1cc(Cl)nn1-c1ncccc1Cl [Compound 4] | 93 | 78 | – | – | –
6 | CNC(=O)c1cc(C#N)cc(C)c1NC(=O)c1cc(Br)nn1-c1ncccc1Cl [Compound 5] | 96 | 94 | 40 | 95 | –
7 | Cc1cc(C#N)cc(C(=O)NCC#N)c1NC(=O)c1cc(Cl)nn1-c1ncccc1Cl [Compound 26] | 73 | 67 | – | – | –
8 | CNC(=O)c1cc(C#N)cc(C)c1NC(=O)c1cc(C(F)(F)F)nn1-c1ncccc1Cl [Compound 2] | – | – | 64 | 56 | –
